Measured values taken from patent US20250346585A1 (Alexion Pharmaceuticals, Inc., priority 2022, published 2025).
pIC50: −log10 of the molar value. Where two headings read alike, the source gives them in different places.

Target: Human complement C1s enzyme (Homo sapiens (Human), UniProt P09871)
Assay: Human C1s enzyme assay
Assay type: biochemical
Conditions: read-out: IC50 (Stars)
In short: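 Purified serum-derived human C1s (1.16 nM final) preincubated 5 min at room temperature with compound in 50 mM Tris, 1 M NaCl, pH 7.5. Z-L-Lys-SBzl thioester substrate and DTNB added (100 μM each, final); A405 read every 30 s for 30 min. IC50 from nonlinear regression of reaction rates against compound concentration.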

[1] = Human complement C1s enzyme 1.16 nM, substrate Z-L-Lys-SBzl 100 μM, assay of Example 3
[2] = Human C1s enzyme assay of Example 3

Human complement C1s enzyme, sequence (P09871 438-688 limits assumed): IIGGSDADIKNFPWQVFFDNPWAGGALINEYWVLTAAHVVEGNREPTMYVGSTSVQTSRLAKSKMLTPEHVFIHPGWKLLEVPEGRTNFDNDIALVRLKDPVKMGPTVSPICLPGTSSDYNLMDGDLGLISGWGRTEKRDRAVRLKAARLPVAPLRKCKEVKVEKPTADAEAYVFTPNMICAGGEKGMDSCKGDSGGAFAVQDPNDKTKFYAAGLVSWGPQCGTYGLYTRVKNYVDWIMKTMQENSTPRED
Human complement C1s enzyme, sequence (P09871 16-437 partner limits assumed): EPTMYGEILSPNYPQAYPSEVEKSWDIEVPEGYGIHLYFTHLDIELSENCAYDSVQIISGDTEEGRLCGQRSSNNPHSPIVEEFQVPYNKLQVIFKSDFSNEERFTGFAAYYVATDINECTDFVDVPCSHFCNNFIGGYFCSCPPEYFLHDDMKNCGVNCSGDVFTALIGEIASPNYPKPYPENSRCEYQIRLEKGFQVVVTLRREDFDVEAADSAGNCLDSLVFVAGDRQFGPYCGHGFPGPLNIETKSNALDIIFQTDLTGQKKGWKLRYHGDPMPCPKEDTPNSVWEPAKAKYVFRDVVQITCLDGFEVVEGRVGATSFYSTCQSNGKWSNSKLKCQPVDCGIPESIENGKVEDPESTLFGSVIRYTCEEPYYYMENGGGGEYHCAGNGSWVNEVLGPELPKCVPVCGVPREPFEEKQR

| pIC50 [1] | pIC50 [2] | SMILES |
| --- | --- | --- |
| > 7.00 |  | COC[C@@]1(F)C[C@@H](C(=O)N[C@H](C)c2cc(C(=N)N)cs2)N(C(=O)CNC(=O)c2ccc3c(c2)S(=O)(=O)c2ccccc2-3)C1 [Compound 350, (2S,4R)—N—((R)-1-(4-carbamimidoylthiophen-2-yl)ethyl)-1-((5,5-dioxidodibenzo[b,d]thiophene-3-carbonyl)glycyl)-4-fluoro-4-(methoxymethyl) pyrrolidine-2-carboxamide] |
|  | > 7.00 | Cc1cccc(C)c1-c1ccc(C(=O)NCC(=O)N2CC3(C[C@H]2C(=O)NCc2cc(C(=N)N)cs2)OCCO3)cc1 [Compound 197, (S)—N-((4-carbamimidoylthiophen-2-yl)methyl)-7-((2′,6′-dimethyl-[1,1′-biphenyl]-4-carbonyl)glycyl)-1,4-dioxa-7-azaspiro[4.4]nonane-8-carboxamide] |
|  | > 7.00 | C[C@@H](NC(=O)[C@@H]1C[C@](F)(CF)CN1C(=O)CNC(=O)c1ccc(Oc2ccc(F)cc2)cc1)c1ccc(C(=N)N)s1 [Compound 40, (2S,4R)—N—((R)-1-(5-carbamimidoylthiophen-2-yl)ethyl)-4-fluoro-4-(fluoromethyl)-1-((4-(4-fluorophenoxy)benzoyl)glycyl)pyrrolidine-2-carboxamide] |
|  | > 7.00 | Cc1cc(C(=O)NCC(=O)N2[C@H]3C[C@@]3(C)C[C@H]2C(=O)N[C@H](C)c2ccc(C(=N)N)s2)ccc1Oc1ccccc1 [Compound 31, (1S,3S,5S)—N—((R)-1-(5-carbamimidoylthiophen-2-yl)ethyl)-5-methyl-2-((3-methyl-4-phenoxybenzoyl)glycyl)-2-azabicyclo[3.1.0]hexane-3-carboxamide] |
|  | > 7.00 | N=C(N)c1csc(CNC(=O)[C@@H]2CC3(CN2C(=O)CNC(=O)c2ccc(Oc4ccccc4)cc2F)OCCO3)c1 [Compound 74, (S)—N-((4-carbamimidoylthiophen-2-yl)methyl)-7-((2-fluoro-4-phenoxybenzoyl)glycyl)-1,4-dioxa-7-azaspiro[4.4]nonane-8-carboxamide] |
| > 7.00 |  | CO[C@@H]1C[C@@H](C(=O)N[C@H](C)c2cc(C(=N)N)cs2)N(C(=O)CNC(=O)c2ccc3cc4ccccc4cc3c2)C1 [Compound 278, (2S,4R)-1-((anthracene-2-carbonyl)glycyl)-N—((R)-1-(4-carbamimidoylthiophen-2-yl)ethyl)-4-methoxypyrrolidine-2-carboxamide] |
| > 7.00 |  | C[C@@H](NC(=O)[C@@H]1C[C@H](C(F)(F)F)CN1C(=O)CNC(=O)c1ccc(Oc2ccc(F)cc2)cc1)c1cc(C(=N)N)cs1 [Compound 323, (2S,4S)—N—((R)-1-(4-carbamimidoylthiophen-2-yl)ethyl)-1-((4-(4-fluorophenoxy)benzoyl)glycyl)-4-(trifluoromethyl)pyrrolidine-2-carboxamide] |
|  | > 7.00 | C[C@@H](NC(=O)[C@@H]1C[C@]2(COCCN)C[C@@H]2N1C(=O)CNC(=O)c1ccc(Oc2ccc(F)cc2)cc1)c1cc(C(=N)N)cs1 [Compound 69, (1S,3S,5R)-5-((2-aminoethoxy)methyl)-N—((R)-1-(4-carbamimidoylthiophen-2-yl)ethyl)-2-((4-(4-fluorophenoxy)benzoyl)glycyl)-2-azabicyclo[3.1.0]hexane-3-carboxamide] |
| > 7.00 |  | COC[C@@]1(F)C[C@@H](C(=O)N[C@H](C)c2cc(C(=N)N)cs2)N(C(=O)CNC(=O)c2ccc3c(c2)C(C)(C)c2ccccc2-3)C1 [Compound 344, (2S,4R)—N—((R)-1-(4-carbamimidoylthiophen-2-yl)ethyl)-1-((9,9-dimethyl-9H-fluorene-2-carbonyl)glycyl)-4-fluoro-4-(methoxymethyl) pyrrolidine-2-carboxamide] |
| 6.00 to 7.00 |  | O=C(NCC(=O)N1CC2(C[C@H]1C(=O)NCc1cc(N3CCCC3)cs1)OCCO2)c1ccc(Oc2ccc(F)cc2)cc1 [Compound 289, (S)-7-((4-(4-fluorophenoxy)benzoyl)glycyl)-N-((4-(pyrrolidin-1-yl)thiophen-2-yl)methyl)-1,4-dioxa-7-azaspiro[4.4]nonane-8-carboxamide] |
|  | > 7.00 | C[C@@H](NC(=O)[C@@H]1CC2(CN1C(=O)CNC(=O)c1ccc3c(c1)-c1ccccc1C3(F)F)OCCO2)c1cc(C(=N)NO)cs1 [Compound 128, (S)-7-((9,9-difluoro-9H-fluorene-3-carbonyl)glycyl)-N—((R)-1-(4-(N-hydroxycarbamimidoyl)thiophen-2-yl)ethyl)-1,4-dioxa-7-azaspiro[4.4]nonane-8-carboxamide] |
| > 7.00 |  | N=C(N)c1csc(CNC(=O)[C@@H]2CC3(CN2C(=O)CNC(=O)c2ccc(-c4ccc(F)cc4C(=O)O)cc2)OCCO3)c1 [Compound 227, (S)-4′-((2-(8-(((4-carbamimidoylthiophen-2-yl)methyl)carbamoyl)-1,4-dioxa-7-azaspiro[4.4]nonan-7-yl)-2-oxoethyl)carbamoyl)-4-fluoro-[1,1′-biphenyl]-2-carboxylic acid] |
| > 7.00 |  | Cc1nc(F)ccc1-c1ccc(C(=O)NCC(=O)N2CC3(C[C@H]2C(=O)NCc2cc(C(=N)N)cs2)OCCO3)cc1 [Compound 211, (S)—N-((4-carbamimidoylthiophen-2-yl)methyl)-7-((4-(6-fluoro-2-methylpyridin-3-yl)benzoyl)glycyl)-1,4-dioxa-7-azaspiro[4.4]nonane-8-carboxamide] |
|  | > 7.00 | N=C(N)c1csc(CNC(=O)[C@@H]2CC3(CN2C(=O)CNC(=O)c2ccc(-c4c(F)cccc4F)cc2)OCCO3)c1 [Compound 196, (S)—N-((4-carbamimidoylthiophen-2-yl)methyl)-7-((2′,6′-difluoro-[1,1′-biphenyl]-4-carbonyl)glycyl)-1,4-dioxa-7-azaspiro[4.4]nonane-8-carboxamide] |
| > 7.00 |  | C[C@@H](NC(=O)[C@@H]1C[C@]2(COCCN(C)C)C[C@@H]2N1C(=O)CNC(=O)c1ccc2c(c1)-c1ccccc1C2(F)F)c1cc(C(=N)N)cs1 [Compound 367, (1S,3S,5R)—N—((R)-1-(4-carbamimidoylthiophen-2-yl)ethyl)-2-((9,9-difluoro-9H-fluorene-3-carbonyl)glycyl)-5-((2-(dimethylamino)ethoxy)methyl)-2-azabicyclo[3.1.0]hexane-3-carboxamide] |
|  | > 7.00 | C[C@@H](NC(=O)[C@@H]1CC2(CN1C(=O)CNC(=O)c1ccc(-c3ccc(F)cc3F)cc1)OCCO2)c1cc(C(=N)N)cs1 [Compound 158, (S)—N—((R)-1-(4-carbamimidoylthiophen-2-yl)ethyl)-7-((2′,4′-difluoro-[1,1′-biphenyl]-4-carbonyl)glycyl)-1,4-dioxa-7-azaspiro[4.4]nonane-8-carboxamide] |
| > 7.00 |  | C[C@@H](NC(=O)[C@@H]1C[C@@H](c2ccccc2)CN1C(=O)CNC(=O)c1ccc2oc3ccccc3c2c1)c1cc(C(=N)N)cs1 [Compound 218, (2S,4S)—N—((R)-1-(4-carbamimidoylthiophen-2-yl)ethyl)-1-((dibenzo[b,d]furan-2-carbonyl)glycyl)-4-phenylpyrrolidine-2-carboxamide] |
| > 7.00 |  | COC[C@@]1(F)C[C@@H](C(=O)N[C@H](C)c2cc(C(=N)N)cs2)N(C(=O)CNC(=O)c2ccc3c(c2)C(C)c2ccccc2-3)C1 (stereo partly drawn) [Compound 363, (2S,4R)—N—((R)-1-(4-carbamimidoylthiophen-2-yl)ethyl)-4-fluoro-4-(methoxymethyl)-1-((9-methyl-9H-fluorene-2-carbonyl)glycyl)pyrrolidine-2-carboxamide] |
| > 7.00 |  | N=C(N)c1csc(CNC(=O)[C@@H]2CC3(CN2C(=O)CN2Cc4cc(-c5ccc(F)cc5F)ccc4C2=O)OCCO3)c1 [Compound 228, (S)—N-((4-carbamimidoylthiophen-2-yl)methyl)-7-(2-(5-(2,4-difluorophenyl)-1-oxoisoindolin-2-yl)acetyl)-1,4-dioxa-7-azaspiro[4.4]nonane-8-carboxamide] |
| > 7.00 |  | N=C(N)c1csc(CNC(=O)[C@@H]2CC3(CN2C(=O)CNC(=O)c2ccc(-c4ccc(F)c(F)c4)cc2)OCCO3)c1 [Compound 207, (S)—N-((4-carbamimidoylthiophen-2-yl)methyl)-7-((3′,4′-difluoro-[1,1′-biphenyl]-4-carbonyl)glycyl)-1,4-dioxa-7-azaspiro[4.4]nonane-8-carboxamide] |
|  | > 7.00 | C[C@@H](NC(=O)[C@@H]1CC2(CN1C(=O)CNC(=O)c1ccc(-c3cc(F)ccc3F)cc1)OCCO2)c1cc(C(=N)N)cs1 [Compound 166, (S)—N—((R)-1-(4-carbamimidoylthiophen-2-yl)ethyl)-7-((2′,5′-difluoro-[1,1′-biphenyl]-4-carbonyl)glycyl)-1,4-dioxa-7-azaspiro[4.4]nonane-8-carboxamide] |
| > 7.00 |  | C[C@@H](NC(=O)[C@@H]1C[C@](F)(CF)CN1C(=O)CNC(=O)c1ccc2c(c1)S(=O)(=O)c1ccccc1-2)c1cc(C(=N)N)cs1 [Compound 375, (2S,4R)—N—((R)-1-(4-carbamimidoylthiophen-2-yl)ethyl)-1-((5,5-dioxidodibenzo[b,d]thiophene-3-carbonyl)glycyl)-4-fluoro-4-(fluoromethyl)pyrrolidine-2-carboxamide] |
|  | > 7.00 | CC(NC(=O)[C@@H]1CC2(CN1C(=O)CNC(=O)c1ccc(-c3ccc(Cl)cn3)cc1)OCCO2)c1cc(C(=N)N)cs1 (stereo in doubt) [Compound 151, (S)—N—((S)-1-(4-carbamimidoylthiophen-2-yl)ethyl)-7-((4-(5-chloropyridin-2-yl)benzoyl)glycyl)-1,4-dioxa-7-azaspiro[4.4]nonane-8-carboxamide] |
|  | > 7.00 | C[C@H]1C[C@@H](C(=O)N[C@H](C)c2cc(C(=N)N)cs2)N(C(=O)CNC(=O)c2ccc3c(c2)-c2ccccc2C3(F)F)C1 [Compound 46, (2S,4S)—N—((R)-1-(4-carbamimidoylthiophen-2-yl)ethyl)-1-((9,9-difluoro-9H-fluorene-3-carbonyl)glycyl)-4-methylpyrrolidine-2-carboxamide] |
